Experiments:
[1] = tested on: Bax and Bcl-2 in activated HSCs; assay: Western-blot analysis of Bax and Bcl-2; format: cell-based, rat; details: densitometry, three independent experiments
Protocol: Dislodged cells were centrifuged at 800 x g/10 min and lysed with 100 μl lysis buffer. The protein concentration was determined using NanoOrange® Protein Quantitation Kit (Life Technologies) according to the manufacturer’s instructions. Briefly, protein solutions were mixed with the diluted NanoOrange reagent in 1.5 ml polypropylene tubes and heated at 95°C for 10 min in a thermomixer (Peqlab, Erlangen, Germany). Tubes were centrifuged and 200 μl of each sample were transferred to a black 96 well flat-bottom plate (Greiner BioOne, Frickenhausen, Germany). The emitted fluorescence was assessed at 570 nm in a SpectraMax Gemini EM (Molecular Devices, Biberach an der Riß, Germany). Protein concentrations were calculated from a bovine serum albumin standard curve. Equivalent amounts (10–50 μg) of protein were used in […]. Sample buffer (1:1) was added and the aliquots (20 μl final volume) were boiled for 5 min and subjected to 12% SDS-PAGE. After blocking for 1 h at room temperature in 10 mmol Tris-HCl, pH 7.5, 100 mmol NaCl, containing 0.1% Tween 20 and 3% bovine serum albumine (BSA), nitrocellulose-membranes were incubated either with polyclonal rabbit anti-rat antibodies to Bax (1:1000, sc-493), Bcl-2 (1:1000, sc783, both Santa Cruz, Santa Cruz, USA), α-actin (1:4000, A2547, Sigma) or β-actin (1:10,000, A5441, Sigma). Membranes were then washed in 10 mmol Tris-HCl, 100 mmol NaCl, 0.1% Tween 20, pH 7.5, and incubated with anti-rabbit IgG coupled to peroxidase (1:1000, A4416, Sigma) for 1 h at room temperature or directly developed (RC20H). Bands were detected with the ECL chemiluminescence reagent (Amersham-Pharmacia, Freiburg, Germany). After stripping in 0.1 M glycin-HCl, pH 2, for 20 min at room temperature, membranes were reprobed with appropriate primary and secondary antibodies. Band intensities were analyzed by densitometry and normalized to β-actin.

CFSC (rat HSC cell line) = assay: [3H]-thymidine incorporation, de-novo DNA synthesis; format: cell-based; set-up: proliferative effect of reconstituted CVI after denaturation and refolding: dose or concentration left out as unconfirmed
Protocol: Immediately before use, guanidine hydrochloride (6 mol/l) was cleared over night by activated charcoal (Merck, Darmstadt, Germany) and adjusted to pH 8.0 by adding 50 mmol/l tris(hydroxymethyl)aminomethane (Tris). Freeze dried CVI (10 mg/ml) was mixed with 1 ml Tris-buffered guanidine-hydrochloride, incubated at room temperature for 1 h with frequent thorough vortex followed by 1 h at 37°C. The buffer from the clear supernatant after centrifugation (10.000 x g, 10 min, 4°C) was replaced for 150 mmol/l HAc by gelfiltration (Sephadex-G25; GE Healthcare, Munich, Germany). This procedure regains the biological activity of CVI on CFSC (S1 Fig).
5x10^3CFSC in 100 μl 10% FBS were seeded into a 96-well flat-bottom tissue culture plate (Nunc, Roskilde, Denmark). After 24 hours, medium was completely removed, and cells were rinsed with 200 μl phosphate-buffered saline and 100 μl standard medium containing only 0.25% FBS were added. Cells were cultured for additional 24 h prior to treatment. Synchronized microcultures in 96-well plates were treated for 2 hours in reduction medium. […] [^3H]-thymidine incorporation was measured as described before. […] After neutralization with 800 mmol/l HCl, lysates were collected to a glassfibre mat and the de-novo DNA synthesis was assessed by liquid scintillation (LKB Wallac, Bromma, Sweden) and the radioactive decay was counted (for) a minute (cpm).

primary rat HSC = assay: Cell Death Detection ELISA (oligonucleosomal DNA fragments); format: cell-based; details: OD of sample divided by OD of 10% FBS group, three independent experiments
Protocol: 10^5 cells were seeded in 6-well plates and treated with starving medium or medium plus CI, CVI or 10% FBS. After 24 or 48 h floating and adherent cells were pooled, and lysed with 500 μl of 1% SDS, 10 mM Tris, pH 7.4 (lysis buffer), for 30 min at 4°C. Lysed cells were transferred to 1.5 ml Eppendorf tubes and centrifuged at 13,000 rpm for 20 min, to separate low molecular weight DNA (oligonucleosome-sized fragments derived from apoptotic cells) from high molecular weight DNA (from viable cells). 400 μl of the supernatant containing oligonucleosomes were transferred to another Eppendorf tube and diluted 1:5 with lysis buffer. 100 μl aliquots were used for the Cell Death Detection ELISA, which was performed according to the manufacturer’s instructions (Boehringer Mannheim, Germany). In brief, antibodies against histones were coated onto 96-wells, 100 μl lysate-samples containing oligonucleotides and histones were added and incubated for one hour. After washing, wells were incubated with anti-double strand DNA antibody coupled to peroxidase for one hour. After reaction with peroxidase substrate, absorbance was measured at 405 nm using an ELISA reader. Background values (lysis-buffer alone) were subtracted, and results are shown as enrichment factor [enrichment factor: OD (optical density) of the sample (apoptotic cells) divided by the OD of the corresponding control (viable cells, 10% FBS-group). A defined positive control was prepared using a hypertonic buffer, containing 10 mM Tris, 400 mM NaCl, 5 mM CaCl2 and 10 mM MgCl2, instead of starving medium.

## CVI: Human collagen VI isolated from placentas by pepsin digestion; triple helical, soluble
[1]; 24 hours culture after serum starvation
  Bax to Bcl-2 ratio: 1.0
[1]; 24 hours, p<0.05
  Bax protein level, fold lower compared to the medium or CI group: 6-7 fold
CFSC (rat HSC cell line); 24 h, n = three independent experiments
  de-novo DNA synthesis ([3H]-thymidine incorporation): induced a comparable increase in de-novo DNA synthesis
CFSC (rat HSC cell line); three independent experiments (S1 Fig)
  proliferative effect of reconstituted CVI after denaturation and refolding: regains its biological activity
Primary rat HSC; after 24 hours
  enrichment factor of oligonucleosomal fragments: 2
Primary rat HSC; after 48 hours
  enrichment factor of oligonucleosomal fragments: 6

Reference: PMC8412337, “Alpha-single chains of collagen type VI inhibit the fibrogenic effects of triple helical collagen VI in hepatic stellate cells” (PLoS ONE, 2021)
